Assay results reported in patent publication EP0241395A2, “Sweeteners derived from n-phenylguanidinoacetic and n-phenylethananamidinacetic acids, and compositions containing such sweeteners” (UNIVERSITE CLAUDE BERNARD - LYON 1, priority 1986, dated 1987).

Test system: groupe de huit goûteurs expérimentés
Assay: Sweetening power judged by a panel of eight experienced tasters against a sucrose reference solution
Assay type: in vivo
Conditions: weight basis; for Pouvoir édulcorant: Table II, relative to a 2 % sucrose solution; for pouvoir édulcorant, sur une base pondérale: approximate
Text: Le pouvoir édulcorant des composés préparés dans les exemples suivants a été évalué par un groupe de huit goûteurs expérimentés. Pour cela, les composés, en solution aqueuse à des concentrations variables, sont comparés, sur le plan gustatif, à une solution témoin de saccharose à 2 % et dans certains cas à 5 % et 10 %, c'est-à-dire à des concentrations correspondant à celles utilisées lors d'un usage courant. Le pouvoir sucrant des édulcorants de synthèse varie en effet suivant la concentration de la solution de saccharose utilisée comme référence. Le pouvoir édulcorant du composé testé par rapport au saccharose correspond alors au rapport pondéral qui existe entre le composé et le saccharose à égale intensité édulcorante, c'est-à-dire quand les saveurs sucrées de la solution du composé testé et de la solution témoin de saccharose sont considérées, par une majorité de goûteurs, avoir la même intensité édulcorante.

[1] = by comparison with a 2 % sucrose solution
[2] = by comparison with a 5 % sucrose solution
[3] = by comparison with a 10 % sucrose solution

Row | Structure (SMILES) | Pouvoir édulcorant | pouvoir édulcorant, sur une base pondérale [1] | pouvoir édulcorant, sur une base pondérale [2] | pouvoir édulcorant, sur une base pondérale [3]
1 | C[C@H](NC(=Nc1cc(Cl)cc(Cl)c1)NCC(=O)O)c1ccccc1 [Exemple 26, acide N-[N-(S)-α-méthylbenzylamino (3,5-dichlorophénylimino)méthyl]-2-aminoéthanoïque] | 120000 | ~120 000 fois celui du saccharose | ~90 000 fois celui du saccharose | ~50 000 fois celui du saccharose
2 | C[C@H](NC(=Nc1cc(F)cc(F)c1)NCC(=O)O)c1ccccc1 [Exemple 27, acide N-[N-(S)-α-méthylbenzylamine (3,5-difluorophënylimino)méthyl]-2-aminoéthanoïque] | 15000 | ~15 000 fois celui du saccharose |  | 
3 | C[C@H](NC(=Nc1cc(Cl)c(Cl)c(Cl)c1)NCC(=O)O)c1ccccc1 [Exemple 28, acide N-[N-(S)-α-méthylbenzylamino (3,4,5-trichlorophénylimino)méthyl]-2-aminoéthanoïque] | 35000 | ~35 000 fois celui du saccharose |  | 
4 | O=C(O)CNC(=C[N+](=O)[O-])Nc1cc(Cl)cc(Cl)c1 [Exemple 29, acide N-[2-nitro(3,5-dichlorophénylamino)éthényl]-2-aminoéthanoïque] | 400 | ~400 fois celui du saccharose |  | 
5 | N#CC(C#N)=C(NCC(=O)O)Nc1cc(Cl)cc(Cl)c1 [Exemple 30, acide N-[2,2-dicyano(3,5-dichlorophénylamino)éthényl]-2-aminoéthanoïque] | 30 |  |  | 
6 | CC(C)N(C)C(=Nc1ccc(C#N)cc1)NCC(=O)O [Exemple 32, acide N-[N-méthyl-N-1-méthyléthyl-amino(4-cyanophénylimino)méthyl]-2-aminoéthanoïque] | 80 | ~80 fois celui du saccharose |  | 
7 | CCN(Cc1ccccc1)C(=Nc1ccc(C#N)cc1)NCC(=O)O [Exemple 34, acide N-[N-éthyl-N-benzylamino (4-cyanophénylimino)méthyl]-2-aminoéthanoïque] | 3000 | ~3 000 fois celui du saccharose |  | 
8 | CCNC(=Nc1ccc(C#N)cc1)NCC(=O)O [Exemple 35, acide N-[N-éthylamino(4-cyanophénylimino)méthyl]-2-aminoéthanoïque] | 350 | ~350 fois celui du saccharose |  | 
9 | CCCCCCN=C(NCC(=O)O)Nc1ccc(C#N)cc1 [Exemple 36, acide N-[N-hexylamino(4-cyanophénylimino)méthyl]-2-aminoéthanoïque] | 6000 | ~6 000 fois celui du saccharose | ~4 300 fois celui du saccharose | ~1400 times sucrose
10 | CC(C)CCNC(=Nc1ccc(C#N)cc1)NCC(=O)O [Exemple 37, acide N-[N-(3-méthylbutyl)amino (4-cyanophénylimino)méthyl)-2-aminoéthanoïque] | 200 | ~200 fois celui du saccharose |  | 
11 | CCC(C)(C)NC(=Nc1ccc(C#N)cc1)NCC(=O)O [Exemple 38, acide N-[N-(1,1-diméthylpropyl)amino(4-cyanophénylimino)méthyl]-2-aminoéthanoïque] | 300 | ~300 fois celui du saccharose |  | 
12 | CC(C)(C)CC(C)(C)NC(=Nc1ccc(C#N)cc1)NCC(=O)O [Exemple 39, acide N-[N-(1,1,3,3-tétraméthylbut-yl)amino(4-cyanophénylimino)méthyl]-2-aminoéthanoïque] | 1 200 | ~1 200 fois celui du saccharose |  | 
13 | O=C(O)CNC(=Nc1ccccc1)Nc1ccccc1 [Exemple 40, acide N-[N-phénylamino(phénylimino)méthyl]-2-aminoéthanoique] | 500 | ~500 fois celui du saccharose |  | 
14 | N#Cc1ccc(N=C(NCC(=O)O)Nc2ccccc2)cc1 [Exemple 41, acide N-[N-phénylamino(4-cyanophénylimino)méthyl]-2-aminoéthanoïque] | 4000 | ~4 000 fois celui du saccharose | ~1 800 fois celui du saccharose | ~650 fois celui du saccharose
15 | O=C(O)CNC(=Nc1ccccc1)NC1CCCCC1 [Exemple 42, acide N-[N-cyclohexylamino(phénylimino)méthyl]-2-aminoéthanoïque] | 100 | ~100 fois celui du saccharose |  | 
16 | N#Cc1ccc(N=C(NCC(=O)O)NC2CCCCC2)cc1 [Exemple 43, acide N-[N-cyclohexylamino(4-cyanophénylimino)méthyl]-2-aminoéthanoïque] | 12000 | ~12 000 fois celui du saccharose | ~10 500 fois celui du saccharose | ~8 500 fois celui du saccharose
17 | O=C(O)CNC(=Nc1cc(Cl)cc(Cl)c1)NC1CCCCCC1 [Exemple 44, acide N-[N-cycloheptylamino (3,5-dichlorophénylimino)méthyl]-2-aminoéthanoïque] | 20000 | ~20 000 fois celui du saccharose |  | 
18 | N#Cc1ccc(N=C(NCC(=O)O)NC2CCCCCC2)cc1 [Exemple 45, acide N-[N-cycloheptylamino(4-cyanophénylimino)méthyl]-2-aminoéthanoïque] | 60000 | ~60 000 fois celui du saccharose |  | 
19 | O=C(O)CNC(=Nc1cc(Cl)cc(Cl)c1)NC1CCCCCCC1 [Exemple 46, acide N-[N-cyclooctylamino (3,5-dichlorophénylimino)méthyl]-2-aminoéthanoïque] | 60000 | ~60 000 fois celui du saccharose |  | 
20 | N#Cc1ccc(NC(=NC2CCCCCCC2)NCC(=O)O)cc1 [Exemple 47, acide N-[N-cyclooctylamino-(4-cyanophénylimino)méthyl]-2-aminoéthanoïque] | 170000 | ~170 000 fois celui du saccharose | ~130 000 fois celui du saccharose | ~100 000 fois celui du saccharose
21 | Cc1cc(NC(=NC2CCCCCCC2)NCC(=O)O)ccc1C#N [Exemple 48, acide N-[N-cyclooctylamino(4-cyano-3-méthylphénylimino)méthyl]-2-aminoéthanoïque] | 80000 | ~80 000 fois celui du saccharose |  | 
22 | N#Cc1ccc(N=C(NCC(=O)O)NC2CCCCCCC2)cc1Cl [Exemple 49, acide N-[N-cyclooctylamino(3-chloro-4-cyanophénylimino)méthyl]-2-aminoéthanoïque] | 100000 | ~100 000 fois celui du saccharose |  | 
23 | N#Cc1ccc(N=C(NCC(=O)O)NC2CCCCCCCC2)cc1 [Exemple 50, acide N-[N-cyclononylamino(4-cyanophénylimino)méthyl]-2-aminoéthanoïque] | 200000 | ~200 000 fois celui du saccharose |  | 
24 | O=C(O)CNC(=Nc1cc(Cl)cc(Cl)c1)NCc1ccccc1 [Exemple 51, acide N-[N-benzylamino(3,5-dichlorophénylimino)méthyl]-2-aminoéthanoïque] | 80000 | ~80 000 fois celui du saccharose |  | 
25 | N#Cc1ccc(N=C(NCC(=O)O)NCc2ccccc2)cc1 [Exemple 52, acide N-[N-benzylamino(4-cyanophénylimino)méthyl]-2-aminoéthanoïque] | 30000 | ~30 000 fois celui du saccharose | ~27 000 fois celui du saccharose | ~22 000 fois celui du saccharose
26 | N#Cc1ccc(N=C(NCCc2ccccc2)NCC(=O)O)cc1 [Exemple 53, acide N-[N-phényléthylamino(4-cyanophénylimino)méthyl]-2-aminoéthanoïque] | 8 500 | ~8 500 fois celui du saccharose | ~6 100 fois celui du saccharose | ~4 200 fois celui du saccharose
27 | C[C@@H](NC(=Nc1ccc(C#N)cc1)NCC(=O)O)c1ccccc1 [Exemple 54, acide N-[N-(R)-a-méthylbenzylamino (4-cyanophénylimino)méthyl]-2-aminoéthanoïque] | 9000 | ~9 000 fois celui du saccharose | ~6600 times sucrose | ~2 500 fois celui du saccharose
28 | O=C(O)CNC(=Nc1ccccc1)NCC1CCCCC1 [Exemple 55, acide N-[N-cyclohexylméthylamino (phénylimino)méthyl]-2-aminoéthanoïque] | 3 300 | ~3 300 fois celui du saccharose | ~2 500 fois celui du saccharose | ~2 000 fois celui du saccharose
29 | N#Cc1cccc(N=C(NCC(=O)O)NCC2CCCCC2)c1 [Exemple 56, acide N-[N-cyclohexylméthylamino (3-cyanophénylimino)méthyl]-2-aminoéthanoïque] | 5000 | ~5 000 fois celui du saccharose |  | 
